According to patent publication US12070037B2, “Methods and compositions for bioprotection of potatoes from Streptomyces scabies” (THE ROYAL INSTITUTION FOR THE ADVANCEMENT OF …, priority 2018, dated 2024):

Tested on: Streptomyces scabies
Test: agar well diffusion assay
Format: cell-based
Experimental: In addition, the antimicrobial activity of the crude extracts from Bacillus pumilus and Bacillus subtilis was assessed via agar well diffusion assay. A spore suspension of Streptomyces scabies was overlaid on PDA and the plates were allowed to air dry. A 50 μL drop of crude extracts from Bacillus pumilus (top), Bacillus pumilus (right), and Bacillus subtilis (left) were poured into agar well and a control solution was pour on the bottom of the agar well.
The concentrated material (crude extract) in the vessel was suspended in 10% acetonitrile (AcN/H2O, v/v) and frozen at −20° C. until further analysis. The crude extract was centrifuged (Sorvall Biofuge Pico, Mandel Scientific, ON, Canada) at 13,000 rpm for 30 min to remove insoluble particles. The supernatant was filter sterilized (PVDF, […], Fisher Scientific, Montreal, Canada) and tested for biological activity against Streptomyces scabies. The filtered extract was then loaded onto a C18 column (Restek™, Fisher Scientific, Montreal, Canada) and eluted with 20 mL of 10%, 20%, 40%, 60%, 80% and 100% acetonitrile and the fractions were collected. The eluted fractions under various concentrations of acetonitrile were lyophilized (SNL216V, Savant Instruments Inc., NY, USA), suspended in sterilized distilled water and tested for biological activity against Streptomyces scabies. The fraction showing an inhibition zone against Streptomyces scabies was selected for further fractionation by HPLC. The active fraction was stored in sterilized vials at 4° C. prior to HPLC analysis.
The antimicrobial activities of Micrococcin P1 at various concentrations were assessed via agar well diffusion assay. A spore suspension of Streptomyces scabies was overlaid on PDA and the plates were allowed to air dry. A 50 μL drop of Micrococcin P1 diluted in various concentrations were applied into agar well.

Substance: Micrococcin P1
- minimal amount giving growth inhibition zones (per well, in 50 μL, PDA, 3 days 30° C.): ≥ 31.25 ng
- antimicrobial activity of the standard (tested for biological activity): showed antimicrobial activity against Streptomyces scabies
- dose dependence of antibacterial activities (up to 5 mg/L (4.37 μM), highest concentration tested): increased proportional to the Micrococcin P1 concentrations
